Assay results: ChEMBL document CHEMBL4382233, “Discovery of novel arylethenesulfonyl fluorides as potential candidates against methicillin-resistant of Staphylococcus aureus (MRSA) for overcoming multidrug resistance of bacterial infections” (2019)
Values after ≈ are worked out from the molar mass of the structure shown. Active and inactive are the calls of the source. The rule behind the calls is not given here.

Columns and labels:
Staphylococcus aureus [1] = assay: Antibacterial activity against methicillin-resistant Staphylococcus aureus after overnight incubation by micro broth dilution analysis; format: functional
[2] = system: Staphylococcus epidermidis; assay: Antibacterial activity against methicillin-resistant Staphylococcus epidermidis after overnight incubation by micro broth dilution analysis; format: functional
[3] = system: Staphylococcus haemolyticus; assay: Antibacterial activity against methicillin-resistant Staphylococcus haemolyticus after overnight incubation by micro broth dilution analysis; format: functional
Staphylococcus aureus [4] = assay: Antibacterial activity against methicillin-resistant Staphylococcus aureus assessed as zone of inhibition at 50 ug/mL after 24 hrs by agar disc diffusion method; format: functional; conditions: read-out: IZ
Staphylococcus aureus [5] = assay: Antibacterial activity against methicillin-resistant Staphylococcus aureus assessed as zone of inhibition at 200 ng/mL after 24 hrs by agar disc diffusion method; format: functional; conditions: read-out: IZ
Staphylococcus aureus [6] = assay: Antibacterial activity against methicillin-resistant Staphylococcus aureus assessed as zone of inhibition at 400 ng/mL after 24 hrs by agar disc diffusion method; format: functional; conditions: read-out: IZ
Staphylococcus aureus [7] = assay: Antibacterial activity against methicillin-resistant Staphylococcus aureus assessed as zone of inhibition at 800 ng/mL after 24 hrs by agar disc diffusion method; format: functional; conditions: read-out: IZ
[8] = system: Staphylococcus epidermidis; assay: Antibacterial activity against methicillin-resistant Staphylococcus epidermidis assessed as zone of inhibition at 20 ug/mL after 24 hrs by agar disc diffusion method; format: functional; conditions: read-out: IZ
[9] = system: Staphylococcus haemolyticus; assay: Antibacterial activity against methicillin-resistant Staphylococcus haemolyticus assessed as zone of inhibition at 50 ug/mL after 24 hrs by agar disc diffusion method; format: functional; conditions: read-out: IZ
[10] = system: Staphylococcus haemolyticus; assay: Antibacterial activity against methicillin-resistant Staphylococcus haemolyticus assessed as zone of inhibition at 200 ng/mL after 24 hrs by agar disc diffusion method; format: functional; conditions: read-out: IZ
[11] = system: Staphylococcus haemolyticus; assay: Antibacterial activity against methicillin-resistant Staphylococcus haemolyticus assessed as zone of inhibition at 400 ng/mL after 24 hrs by agar disc diffusion method; format: functional; conditions: read-out: IZ
[12] = system: Staphylococcus haemolyticus; assay: Antibacterial activity against methicillin-resistant Staphylococcus haemolyticus assessed as zone of inhibition at 800 ng/mL after 24 hrs by agar disc diffusion method; format: functional; conditions: read-out: IZ
Staphylococcus aureus [13] = assay: Induction of cellular content release in methicillin-resistant Staphylococcus aureus assessed as DNA content by measuring optical density at 260 nm at MIC after 240 mins by UV-visible spectrophotometric analysis; format: functional
Staphylococcus aureus [14] = assay: Antibiofilm activity against methicillin-resistant Staphylococcus aureus at 2 times MIC after 24 hrs by crystal violet staining-based UV-visible spectrophotometric analysis; format: functional, organism-based
Staphylococcus aureus [15] = assay: Induction of pore formation in methicillin-resistant Staphylococcus aureus cell membrane assessed as increase in ferricyanide mediated cellular leakage after 2 hrs by DCPIP dye-based cyclic voltammetric analysis; format: functional, organism-based
Staphylococcus aureus [16] = assay: Induction of pore formation in methicillin-resistant Staphylococcus aureus cell membrane assessed as increase in ferricyanide mediated potassium efflux after 2 hrs by DCPIP dye-based cyclic voltammetric analysis; format: functional, organism-based
Staphylococcus aureus [17] = assay: Induction of pore formation in methicillin-resistant Staphylococcus aureus cell membrane assessed as increase in ferricyanide mediated DNA damage after 2 hrs by DCPIP dye-based cyclic voltammetric analysis; format: functional, organism-based
Staphylococcus aureus [18] = assay: Antibiofilm activity against methicillin-resistant Staphylococcus aureus at MIC after 24 hrs by crystal violet staining-based UV-visible spectrophotometric analysis; format: functional, organism-based
Staphylococcus aureus [19] = assay: Antibiofilm activity against methicillin-resistant Staphylococcus aureus assessed as optical density at 492 nm at 1 to 2 times MIC after 24 hrs by crystal violet staining-based UV-visible spectrophotometric analysis; format: functional
Staphylococcus aureus [20] = assay: Antibiofilm activity against methicillin-resistant Staphylococcus aureus planktonic biofilm assessed as optical density at 492 nm at MIC after 24 hrs by crystal violet staining-based UV-visible spectrophotometric analysis; format: functional
Staphylococcus aureus [21] = assay: Antibacterial activity against methicillin-resistant Staphylococcus aureus assessed as zone of inhibition at 10 ug/mL after 24 hrs by agar disc diffusion method; format: functional; conditions: read-out: IZ
[22] = system: Staphylococcus epidermidis; assay: Antibacterial activity against methicillin-resistant Staphylococcus epidermidis assessed as zone of inhibition at 10 ug/mL after 24 hrs by agar disc diffusion method; format: functional; conditions: read-out: IZ
[23] = system: Staphylococcus haemolyticus; assay: Antibacterial activity against methicillin-resistant Staphylococcus haemolyticus assessed as zone of inhibition at 10 ug/mL after 24 hrs by agar disc diffusion method; format: functional; conditions: read-out: IZ
[24] = system: Staphylococcus epidermidis; assay: Antibacterial activity against methicillin-resistant Staphylococcus epidermidis assessed as zone of inhibition at 200 ng/mL after 24 hrs by agar disc diffusion method; format: functional; conditions: read-out: IZ
[25] = system: Staphylococcus epidermidis; assay: Antibacterial activity against methicillin-resistant Staphylococcus epidermidis assessed as zone of inhibition at 400 ng/mL after 24 hrs by agar disc diffusion method; format: functional; conditions: read-out: IZ
[26] = system: Staphylococcus epidermidis; assay: Antibacterial activity against methicillin-resistant Staphylococcus epidermidis assessed as zone of inhibition at 800 ng/mL after 24 hrs by agar disc diffusion method; format: functional; conditions: read-out: IZ
Staphylococcus aureus [27] = assay: Antibiofilm activity against methicillin-resistant Staphylococcus aureus assessed as reduction in adherence of planktonic bacteria at MIC up to 24 hrs by SEM analysis; format: functional, organism-based
Staphylococcus aureus [28] = assay: Induction of membrane disruption in methicillin-resistant Staphylococcus aureus at MIC up to 24 hrs by SEM analysis; format: functional, organism-based
Staphylococcus aureus [29] = assay: Antibacterial activity against methicillin-resistant Staphylococcus aureus at MIC by SEM analysis; format: functional, organism-based; conditions: TDE = time-dependent effect

Row | SMILES | MIC99 (Staphylococcus aureus [1]) [µg/mL] | MIC99 [2] [µg/mL] | MIC99 [3] [µg/mL] | zone of inhibition at 50 µg/mL (Staphylococcus aureus [4]) [mm] | zone of inhibition at 0.2 µg/mL (Staphylococcus aureus [5]) [mm] | zone of inhibition at 0.4 µg/mL (Staphylococcus aureus [6]) [mm] | zone of inhibition at 0.8 µg/mL (Staphylococcus aureus [7]) [mm] | zone of inhibition at 20 µg/mL [8] [mm] | zone of inhibition at 50 µg/mL [9] [mm] | zone of inhibition at 0.2 µg/mL [10] [mm] | zone of inhibition at 0.4 µg/mL [11] [mm] | zone of inhibition at 0.8 µg/mL [12] [mm] | OD (Staphylococcus aureus [13]) | Activity (Staphylococcus aureus [14]) | Activity (Staphylococcus aureus [15]) | Activity (Staphylococcus aureus [16]) | Activity (Staphylococcus aureus [17]) | Activity (Staphylococcus aureus [18]) | OD (Staphylococcus aureus [19]) | OD (Staphylococcus aureus [20]) | other results
1 | CC(=O)c1cccc(/C=C/S(=O)(=O)F)c1 | 0.851 (≈ 3.73 µM) | 55.6 (≈ 244 µM) | 0.843 (≈ 3.69 µM) | 10.1 | 5.2 | 7.5 | 8.1 | 3.3 | 8.2 | 4.2 | 5.2 | 6.2 | 1.28 | Active | Active | Active | Active |  |  |  | 
2 | CS(=O)(=O)c1cccc(/C=C/S(=O)(=O)F)c1 | 0.81 (≈ 3.06 µM) | 44.2 (≈ 167 µM) | 39.1 (≈ 148 µM) | 10 | 6.4 | 7.1 | 10.2 | 6.2 | 6.3 |  |  |  | 1.86 |  | Active | Active | Active | Active | 0.61 | 0.612 | 
3 | CC1(C)S[C@@H]2[C@H](NC(=O)[C@H](N)c3ccccc3)C(=O)N2[C@H]1C(=O)O [AMPICILLIN] | 0.12 (≈ 0.343 µM) | 7.15 (≈ 20.5 µM) | 10.1 (≈ 28.9 µM) |  |  |  |  |  |  |  |  |  |  | Active |  |  |  |  |  | 0.745 | zone of inhibition at 10 µg/mL (Staphylococcus aureus [21]): 9.95 mm; zone of inhibition at 10 µg/mL [22]: 11.7 mm; zone of inhibition at 10 µg/mL [23]: 7.6 mm
4 | O=S(=O)(F)/C=C/c1cc(Cl)cc(Cl)c1 | 0.812 (≈ 3.18 µM) | 48.1 (≈ 188 µM) | 16.3 (≈ 63.9 µM) | 20.1 | 6.2 | 10.2 | 14.2 | 4.4 | 13.1 | 0 | 3.3 | 5.1 | 1.34 |  | Active | Active | Active | Active |  | 0.825 | 
5 | O=S(=O)(F)/C=C/c1cc(Cl)nc(Cl)c1 | 0.811 (≈ 3.17 µM) | 0.84 (≈ 3.28 µM) | 0.842 (≈ 3.29 µM) | 12.1 | 7.1 | 9.2 | 11.4 | 7.1 | 7.2 | 5.2 | 6.5 | 7.4 | 1.85 |  | Active | Active | Active | Active | 0.72 | 0.725 | zone of inhibition at 0.2 µg/mL [24]: 5.4 mm; zone of inhibition at 0.4 µg/mL [25]: 6.3 mm; zone of inhibition at 0.8 µg/mL [26]: 7.2 mm; Activity (Staphylococcus aureus [27]): Active; Activity (Staphylococcus aureus [28]): Active; Activity (Staphylococcus aureus [29]): Tde
